According to patent US4504478A, “Cephalosporin-1-oxide derivatives” (Imperial Chemical Industries PLC, priority 1982, dated 1985):

Columns and labels:
Test in all cases: MIC by agar-dilution, in vitro antibacterial test
Format in all cases: cell-based
K. aerogenes = details: Code No. A10, Jewell and Pearmain agar medium, inoculum ~10^5 CFU
From the text: (§1) As noted above the cephalosporin derivative of the invention has antibacterial properties, having a broad spectrum of activity in vitro against standard laboratory microorganisms, both Gram-negative and Gram-positive, which are used to screen for activity against pathogenic bacteria. The antibacterial spectrum and potency of a particular compound may be determined in a standard test system.
(§2) The results set out in the following Table of the compound described in Example 1 are illustrative of the biological activity of the compounds of the present invention. The results are those obtained on a standard in vitro test system using Jewell and Pearmain agar medium. The antibacterial activity is described in terms of the minimum inhibitory concentration (MIC) determined by agar - dilution technique with an inoculum size of ~10^5 CFU.

Ps. aeruginosa = details: Code No. A21, Jewell and Pearmain agar medium, inoculum ~10^5 CFU
From the text: as §1, §2

Salmonella dublin = details: Code No. A20, Jewell and Pearmain agar medium, inoculum ~10^5 CFU
From the text: as §1, §2

Strep. pyrogenes = details: Code No. A1, Jewell and Pearmain agar medium, inoculum ~10^5 CFU
From the text: as §1, §2

Ent. cloacae = details: Code No. A13, Jewell and Pearmain agar medium, inoculum ~10^5 CFU
From the text: as §1, §2

Serratia marescens = details: Code No. A16, Jewell and Pearmain agar medium, inoculum ~10^5 CFU
From the text: as §1, §2

Staph. aureus = details: Code No. A6, Jewell and Pearmain agar medium, inoculum ~10^5 CFU
From the text: as §1, §2

Proteus mirabilis = details: Code No. A18, Jewell and Pearmain agar medium, inoculum ~10^5 CFU
From the text: as §1, §2

E. coli = details: Code No. A8, Jewell and Pearmain agar medium, inoculum ~10^5 CFU
From the text: as §1, §2

CC(=O)OCC1=C(C(=O)O)N2C(=O)C(Nc3ncc[nH]3)C2[S+]([O-])C1.O=C(O)C(F)(F)F (stereo not drawn) [Example 1, 3-acetoxymethyl-7-(imidazol-2-yl)aminoceph-3-em-1β-oxide-4-carboxylicacid trifluoroacetate]
minimum inhibitory concentration (MIC) (K. aerogenes): 4 µg/mL | minimum inhibitory concentration (MIC) (Ps. aeruginosa): > 128 µg/mL | minimum inhibitory concentration (MIC) (Salmonella dublin): 1 µg/mL | minimum inhibitory concentration (MIC) (Strep. pyrogenes): 64 µg/mL | minimum inhibitory concentration (MIC) (Ent. cloacae): 2 µg/mL | minimum inhibitory concentration (MIC) (Serratia marescens): 64 µg/mL | minimum inhibitory concentration (MIC) (Staph. aureus): > 128 µg/mL | minimum inhibitory concentration (MIC) (Proteus mirabilis): > 128 µg/mL | minimum inhibitory concentration (MIC) (E. coli): 2 µg/mL
